Where “and” joins values, the source holds several entries; their conditions need not be identical. Identical values can stand only once.
How the values were obtained:
[1] = Solubility of the hit compound; format: physicochemical
Experimental: Screen Format 384-well black plates (Greiner, 784290)
Concentration(s) tested 2 mM compound with 2% DMSO (final concentration), 40 nM FITC-labeled H3K9me3 peptide, 8 μM tandem
Tudor domain of UHRF1 protein
Plate controls Background: FITC-labeled peptide only; negative control: FITC-labeled peptide and protein; positive control: FITC-labeled peptide and protein plus unlabeled H3K9me3 peptide
Reagent/ compound dispensing system Agilent Bravo robot
Detection instrument and software Synergy 4 microplate reader (BioTek), GraphPad […]
Assay validation/QC Z’ factor = 0.8
Correction factors Background value
Normalization All the digital values of fluorescence polarization signal subtract the background signal value.
Additional comments High concentrations (>2.5%) of DMSO might affect peptide binding and signal-to-noise ratios
Post-HTS analysis Hit criteria The signal of negative control was set as 100%. When the signal of sample was less than 50% of negative control, it was taken as hit.
Additional assay(s) The hits were further confirmed by dose response analysis with 1 mM as the highest concentration of the hits and 11 serial dilutions by 2 times, and then by isothermal titration calorimetry assay.
Confirmation of hit purity and structure The compound was repurchased (Specs, ID: AG- […]

[2] = biological target: T1, proteins displaced from immobilized biotin-Cmpd 1 pulldowns (U2OS cell lysate) (Homo sapiens, UniProt Q6UWP8); assay: Affinity-purification and mass spectrometry (AP-MS) chemical proteomics, all proteins; format: binding; conditions: GN=SBSN (Q6UWP8);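 for Difference: 200 µM free competitor with 20 µM biotin probe overnight in lysate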
T1 construct: endogenous in cells; host or cells: U2OS

[3] = biological target: T2, proteins displaced from immobilized biotin-Cmpd 1 pulldowns (U2OS cell lysate) (Homo sapiens, UniProt P06733); assay: as above; format: binding; conditions: GN=ENO1 (P06733)
T2 construct: endogenous in cells; host or cells: U2OS

[4] = biological target: T3, proteins displaced from immobilized biotin-Cmpd 1 pulldowns (U2OS cell lysate) (Homo sapiens, UniProt P05109); assay: as above; format: binding; conditions: GN=S100A8 (P05109)
T3 construct: endogenous in cells; host or cells: U2OS

[5] = biological target: T4, proteins displaced from immobilized biotin-Cmpd 1 pulldowns (U2OS cell lysate) (Homo sapiens, UniProt P49368); assay: as above; format: binding; conditions: GN=CCT3 (P49368)
T4 construct: endogenous in cells; host or cells: U2OS

[6] = biological target: T5, proteins displaced from immobilized biotin-Cmpd 1 pulldowns (U2OS cell lysate) (Homo sapiens, UniProt P05089); assay: as above; format: binding; conditions: GN=ARG1 (P05089)
T5 construct: endogenous in cells; host or cells: U2OS

[7] = biological target: T6, proteins displaced from immobilized biotin-Cmpd 1 pulldowns (U2OS cell lysate) (Homo sapiens, UniProt Q9UKD2); assay: as above; format: binding; conditions: GN=MRTO4 (Q9UKD2)
T6 construct: endogenous in cells; host or cells: U2OS

T4 sequence (P49368 whole entry): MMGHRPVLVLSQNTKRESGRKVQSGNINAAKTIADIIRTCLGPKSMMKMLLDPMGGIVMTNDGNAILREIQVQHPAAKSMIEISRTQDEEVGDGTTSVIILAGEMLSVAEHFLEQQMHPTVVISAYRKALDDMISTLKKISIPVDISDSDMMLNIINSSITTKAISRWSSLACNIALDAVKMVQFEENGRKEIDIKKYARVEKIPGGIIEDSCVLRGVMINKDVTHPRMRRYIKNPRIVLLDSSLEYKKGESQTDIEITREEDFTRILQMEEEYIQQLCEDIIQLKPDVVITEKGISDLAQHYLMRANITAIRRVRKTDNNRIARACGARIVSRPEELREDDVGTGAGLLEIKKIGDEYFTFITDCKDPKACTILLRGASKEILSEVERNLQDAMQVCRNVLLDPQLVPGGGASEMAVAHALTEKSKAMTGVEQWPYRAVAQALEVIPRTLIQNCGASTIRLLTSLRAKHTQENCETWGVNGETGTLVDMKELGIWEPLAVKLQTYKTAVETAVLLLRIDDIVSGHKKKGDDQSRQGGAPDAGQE
T2 sequence (P06733 whole entry): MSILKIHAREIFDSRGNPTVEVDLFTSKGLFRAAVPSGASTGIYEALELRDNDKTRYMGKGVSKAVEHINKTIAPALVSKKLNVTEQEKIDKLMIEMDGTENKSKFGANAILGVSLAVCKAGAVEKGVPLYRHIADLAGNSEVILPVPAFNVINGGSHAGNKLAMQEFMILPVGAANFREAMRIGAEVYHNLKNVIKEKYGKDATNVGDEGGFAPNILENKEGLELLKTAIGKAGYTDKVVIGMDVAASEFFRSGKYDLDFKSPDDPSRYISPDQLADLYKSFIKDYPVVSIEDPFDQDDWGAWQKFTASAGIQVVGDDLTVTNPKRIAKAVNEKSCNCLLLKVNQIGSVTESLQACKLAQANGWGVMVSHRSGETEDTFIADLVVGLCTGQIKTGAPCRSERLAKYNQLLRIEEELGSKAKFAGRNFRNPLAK
T5 sequence (P05089 whole entry): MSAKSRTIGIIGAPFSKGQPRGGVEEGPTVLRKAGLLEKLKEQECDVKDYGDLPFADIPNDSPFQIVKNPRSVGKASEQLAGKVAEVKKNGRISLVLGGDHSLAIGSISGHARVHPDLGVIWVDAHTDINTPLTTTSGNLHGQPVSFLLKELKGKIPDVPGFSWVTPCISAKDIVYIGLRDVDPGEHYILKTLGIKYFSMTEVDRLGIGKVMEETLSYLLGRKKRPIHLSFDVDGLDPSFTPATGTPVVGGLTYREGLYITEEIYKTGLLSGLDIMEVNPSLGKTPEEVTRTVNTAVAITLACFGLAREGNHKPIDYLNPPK
T3 sequence (P05109 whole entry): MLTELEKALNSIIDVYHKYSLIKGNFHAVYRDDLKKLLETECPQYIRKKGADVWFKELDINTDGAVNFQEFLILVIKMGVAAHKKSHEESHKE
T1 sequence (Q6UWP8 26-590): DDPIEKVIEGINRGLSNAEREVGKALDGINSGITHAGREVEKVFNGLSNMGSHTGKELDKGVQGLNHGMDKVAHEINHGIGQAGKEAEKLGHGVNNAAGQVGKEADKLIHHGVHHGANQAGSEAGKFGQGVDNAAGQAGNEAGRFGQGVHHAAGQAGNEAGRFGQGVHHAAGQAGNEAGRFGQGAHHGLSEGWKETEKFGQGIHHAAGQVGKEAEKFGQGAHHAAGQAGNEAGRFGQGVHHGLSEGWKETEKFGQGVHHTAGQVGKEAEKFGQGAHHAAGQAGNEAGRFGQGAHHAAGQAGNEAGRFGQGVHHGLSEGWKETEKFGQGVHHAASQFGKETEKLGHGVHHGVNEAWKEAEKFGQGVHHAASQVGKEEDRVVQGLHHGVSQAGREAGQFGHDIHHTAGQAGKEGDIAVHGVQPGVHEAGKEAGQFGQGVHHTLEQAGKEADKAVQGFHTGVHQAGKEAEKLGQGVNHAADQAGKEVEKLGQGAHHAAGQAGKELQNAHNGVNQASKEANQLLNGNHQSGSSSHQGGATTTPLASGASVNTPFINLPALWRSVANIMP

Structure (SMILES): Cn1c2c(c(=N)c3c1CCC3)CCC2 [Compound 1, 4-methyl-2,3,4,5,6,7-hexahydrodicyclopenta[b,e]pyridin-8(1H)-imine]
- concentration dissolved in DMSO ([1]; DMSO): 100000 µM
- solubility in buffer at high concentration ([1]; buffer): but not in buffer
- Difference ([2]; Cmpd minus DMSO, -LOG(P-value) 0.819941): -1.912
- iBAQ Cmpd ([2]; replicates 1-3): 15.6356 and 17.305 and 16.0247
- Difference ([3]; Cmpd minus DMSO, -LOG(P-value) 1.38674): -0.4405
- iBAQ Cmpd ([3]; replicates 1-3): 21.5649 and 21.7568 and 21.506
- Difference ([4]; Cmpd minus DMSO, -LOG(P-value) 1.46412): -2.055
- iBAQ Cmpd ([4]; replicates 1-3): 21.5375 and 20.6129 and 20.1927
- Difference ([5]; Cmpd minus DMSO, -LOG(P-value) 0.937615): 0.5386
- iBAQ Cmpd ([5]; replicates 1-3): 20.7218 and 21.2363 and 20.6211
- Difference ([6]; Cmpd minus DMSO, -LOG(P-value) 0.796604): -1.277
- iBAQ Cmpd ([6]; replicates 1-3): 21.3858 and 21.3863 and 20.4096
- Difference ([7]; Cmpd minus DMSO, -LOG(P-value) 1.00789): 2.584
- iBAQ Cmpd ([7]; replicates 1-3): 18.8307 and 17.054 and 17.709
